# Test results as given in US8785594B2, “Glycoproteins and glycosylated cells and a method for the preparation of the same” (Glycom A/S, priority 2007, dated 2014).
# Tested on: B16.BL6 melanoma cells
# Assay: Staining of cell smears with FITC-labelled GS1B4 (Example 11)
# Type: cell-based
# Protocol: Five hundred mg of alpha-Gal trisaccharide-carbamate (9) was dissolved in PBS (without Mg^2+ and Ca^2+) (Gibco Invitrogen, Taastrup, Denmark) and passed through a sterile filter (Sartorius Minisart®, 0.20 my) (Sartorius, Goettingen, Germany). Eight different concentrations of conjugate were prepared. Two mL of each conjugate dilution was added to a flask with 2 mL of PBS (without Mg^2+ and Ca^2+) and 600 μl of cell suspension containing 10^6 B16.BL6 cells. The final volume of the flasks was 4.6 mL. The flasks were numbered 1 to 10. Flasks 1 and 10 contained no conjugate and served as controls. The cells were incubated with the conjugate for 3 hours and 25 minutes at 37° C. and 5% CO2.
# Smears of cells from conjugation reaction 1 (non-conjugated control cells), 2, 4, 6 and 8 were incubated for 1 hour at room temperature with FITC-labelled GS1B4 diluted 1:200 in TBS. After a rinse in TBS, one drop of Fluorescent Mounting Medium (DAKO) was placed on each of the cell specimens and glass coverslips were placed on top. Binding of FITC-labelled GS1B4 to Galα1,3Gal on conjugated cells was assessed by fluorescence microscopy.
smiles,measurement,setting,value
"O=C1N[C@@H]2O[C@H](CO)[C@@H](O[C@@H]3O[C@H](CO)[C@H](O)[C@H](O[C@H]4O[C@H](CO)[C@H](O)[C@H](O)[C@H]4O)[C@H]3O)[C@H](O)[C@H]2O1 [Compound 9, alpha-Gal trisaccharide-carbamate]",Staining of cell membranes with FITC-labelled GS1B4,conjugation reaction 2 (200 mg),heavily stained
same,"Galα1,3Gal epitopes detected by binding of FITC-labelled GS1B4 on cell smears","conjugation reactions 2, 4, 6 and 8 (200, 50, 10, 2 mg)",found on cells from all conjugation reactions tested
